From article PMC5215601, “Functional Characterization of the N-Terminal C2 Domain from Arabidopsis thaliana Phospholipase Dα and Dβ” (BioMed Research International, 2016) come the findings set out here.

In assay [1] the target is T1, C2α domain of AtPLDα (mC2α) (Arabidopsis thaliana, UniProt Q38882).
T1 construct: gene PLDALPHA1; mature-like C2 domain lacking the N-terminal residues; forward primer encodes (M)ANVEET, extra Met added; last encoded residues before tag ...LQYFHVE by reverse primer; C-terminal 6xHis kept
T1 sequence (Q38882 35-152): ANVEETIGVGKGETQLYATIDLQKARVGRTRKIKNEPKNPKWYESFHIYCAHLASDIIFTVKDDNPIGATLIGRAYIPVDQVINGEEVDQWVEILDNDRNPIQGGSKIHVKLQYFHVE
The assay is described as follows: protein to dansyl-PE liposome FRET; lipid dot-blot. The assay is classed as binding. The following applies: 20 μM liposomes with 5% dansyl-PE, 1 μM domain, 50 mM HEPES pH 8, 30 °C; 0, 50 or 200 μM Ca2+.

Assay [2] has as its target T2, C2β domain of AtPLDβ (mC2β) (Arabidopsis thaliana, UniProt P93733, F299V).
T2 construct: gene PLDBETA1; C2 domain cut to match mature-like C2α; forward primer encodes MVGRLPG (second codon F changed to V); C-terminal 6xHis kept
T2 sequence (P93733 298-418 F299V): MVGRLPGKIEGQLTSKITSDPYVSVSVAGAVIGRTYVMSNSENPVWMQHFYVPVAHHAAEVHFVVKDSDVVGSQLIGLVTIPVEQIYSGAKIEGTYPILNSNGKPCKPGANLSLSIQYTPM
The assay is described as follows: protein to dansyl-PE liposome FRET. The format is binding. The following applies: 20 μM liposomes with 5% dansyl-PE, 1 μM domain, 50 mM HEPES pH 8, 30 °C; 0, 50 or 200 μM Ca2+.

Assay [3] concerns the target T2, C2β domain of AtPLDβ (mC2β). The assay is described as follows: protein to dansyl-PE liposome FRET; lipid dot-blot. The format is binding. The settings on record: 20 μM liposomes with 5% dansyl-PE, 1 μM domain, 50 mM HEPES pH 8, 30 °C; 0, 50 or 200 μM Ca2+.
The next assay has as its target T3, AtPLDα-WT (Arabidopsis thaliana, UniProt Q38882).
T3 construct: gene PLDALPHA1; full-length cDNA, untagged, Pichia pastoris X-33; possibly N-glycosylated
T3 sequence (Q38882 36-810): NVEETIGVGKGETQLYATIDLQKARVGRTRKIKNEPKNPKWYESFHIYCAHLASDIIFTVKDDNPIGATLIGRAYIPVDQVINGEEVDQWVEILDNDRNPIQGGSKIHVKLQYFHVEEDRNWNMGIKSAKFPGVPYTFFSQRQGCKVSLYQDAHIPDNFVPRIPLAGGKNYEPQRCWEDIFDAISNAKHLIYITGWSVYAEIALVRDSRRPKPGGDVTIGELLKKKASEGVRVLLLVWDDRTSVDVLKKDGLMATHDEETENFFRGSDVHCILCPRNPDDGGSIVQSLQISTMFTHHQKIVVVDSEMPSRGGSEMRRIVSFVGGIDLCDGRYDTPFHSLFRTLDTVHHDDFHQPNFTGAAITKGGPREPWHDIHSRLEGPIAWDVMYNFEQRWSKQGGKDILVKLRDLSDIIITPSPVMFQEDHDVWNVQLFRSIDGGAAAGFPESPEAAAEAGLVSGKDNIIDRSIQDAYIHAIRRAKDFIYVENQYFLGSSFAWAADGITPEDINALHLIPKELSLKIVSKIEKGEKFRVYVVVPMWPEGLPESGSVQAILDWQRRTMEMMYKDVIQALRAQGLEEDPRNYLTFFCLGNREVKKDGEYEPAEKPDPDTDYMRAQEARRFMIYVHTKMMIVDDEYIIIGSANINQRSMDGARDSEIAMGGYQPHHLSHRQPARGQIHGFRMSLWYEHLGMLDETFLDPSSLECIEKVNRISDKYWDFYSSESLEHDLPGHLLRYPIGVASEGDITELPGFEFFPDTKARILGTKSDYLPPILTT
Nature of the assay: choline oxidase / peroxidase coupled colorimetric assay, […] nm. The assay is classed as biochemical. The following applies: crude P. pastoris extract; 266 μM POPC in SDS / Triton X-100 mixed micelles, 20 mM CaCl2, 50 mM Tris-HCl pH 8.0.

Molecules are shown by their SMILES.

On to `CCCCCCCC/C=C\CCCCCCCC(=O)O[C@H](COC(=O)CCCCCCCCCCCCCCC)COP(=O)(O)OCC(O)CO` (mixture of isomers) [PG, 1-Palmitoyl-2-oleoyl-sn-glycero-3-phospho-(1′-rac-glycerol)], for which the “relative FRET” value in assay [1] and in assay [2] was “both C2 domains showed a strong binding to PG vesicles” in each case.

For the compound `CCCCCCCC/C=C\CCCCCCCC(=O)O[C@H](COC(=O)CCCCCCCCCCCCCCC)COP(=O)(O)O` [PA, 1-palmitoyl-2-oleoyl-sn-glycero-3-phosphate], the “relative FRET” value in assay [1] was “both C2 domains were found to bind anionic phospholipids (PA and PS)”; in assay [3] it was “both C2 domains were found to bind anionic phospholipids (PA and PS)”.

On to `CCCCCCCC/C=C\CCCCCCCC(=O)O[C@H](COC(=O)CCCCCCCCCCCCCCC)COP(=O)([O-])OCC[N+](C)(C)C` [PC, 1-Palmitoyl-2-oleoyl-sn-glycero-3-phosphocholine], for which the PLD activity result at AtPLDα-WT is “crude extracts of P. pastoris transformed with the AtPLDα-WT exhibited a higher PLD activity”.
